The results in this text go back to patent US5342842A, “Pyrimidone derivatives and analogs in the treatment of asthma or certain skin disorders” (Pfizer Inc., priority 1992, dated 1994).

Molecules are shown by their SMILES.

In assay [1] the target is Pulmonary Phosphodiesterase (PDEIV). In words: Inhibition of pulmonary phosphodiesterase (PDEIV) from guinea pig lung, [3H]cAMP hydrolysis. The settings on record: 1 μM [3H]-cAMP, 37° C., 10 minutes, 1% DMSO, read-out: IC50, concentration which inhibits 50% of specific hydrolysis of [3H]cAMP to [3H]5' AMP. The assay is classed as biochemical. How it is done: Lung tissue from guinea pigs was placed in a homogenization buffer solution (20 mM Bistris, 5 mM 2-mercaptoethanol, 2 mM benzamidine, 2 mM EDTA, 50 mM sodium acetate, pH 6.5) at a concentration of 10 ml/gm of tissue. The tissue was homogenized using a Tekmar Tissumizer at full speed for 10 seconds. Phenylmethylsulfonyl fluoride (PMSF, 50 mM in 2-propanol) was added to the buffer immediately prior to homogenization to give a final PMSF concentration of 50μM. The homogenate was centrifuged at 12,000×g for 10 minutes at 4° C. The supernatant was filtered through gauze and glass wool and then applied to a 17×1.5 cm column of DEAE-Sepharose CL-6B, pre-equilibrated with homogenization buffer, at 4° C. A flow rate of 1 ml/min was used. After the supernatant had passed through the column, the column is washed with a volume of homogenization buffer at least two times that of the supernatant. […] Fractions were saved based on specific PDEIV activity, determined by [^3 H]cAMP hydrolysis and the ability of a […]. […]
The reaction tubes were shaken and placed in a water bath (37° C.) for 10 minutes, at which time the reaction was stopped by placing the tubes in a boiling water bath for 2 minutes. […] After vortexing, 1 ml of the elution was added to 3 ml Atomlight scintillation fluid in an appropriate vial, vortexed, and counted for [^3 H].
Percent inhibition is determined by the formula: [formula] […]

The test system of assay [2] is human PDE. As to the kind of experiment: Inhibition of PDE in leukocyte homogenate preparation (human PDE assays, Dr. Hanifin). The assay is classed as biochemical. An excerpt: (§1) See Grewe et al., J. Allergy Clin. Immunol., v. 70, pp. 452-457, 1982. […] Dr. Hanifin has a source of human PDE isolated from mononuclear leukocyte. They were approached and readily agreed to test 5-[3-(exo-bicyclo[2.2.1]hept-2-yloxy)-4-methoxyphenyl]-3,4,5,6-tetrahydropyrimidin-2(1H)-one in their human PDE assays (see Cooper et al., cited above).

Assay [3] deals with human PDE. As to the kind of experiment: Inhibition of PDE in intact human peripheral blood leukocyte preparation (human PDE assays, Dr. Hanifin). The assay is classed as cell-based.
Source text: as §1

In assay [4] the test system is Eosinophil Migration into Sensitized Lung Tissue. In words: Inhibition of eosinophil migration into sensitized lung tissue challenged with antigen in guinea pigs (specific EPO response in lung lavage). The following applies: Cavia porcellus, po, P.O., guinea pigs sensitized with anti-OA IgG1, ovalbumin aerosol challenge, lavage after 18 hours. The assay is classed as in vivo, guinea pig. How it is done:
Normal Hartley guinea pigs (300-350 grams) delivered from Charles River Laboratories were housed 5-7 days before sensitization. Guinea pigs were then sensitized with 0.5 mg/kg anti-OA IgG1 or saline as control. After 48-72 hours, guinea pigs were dosed P.O. in groups of six animals each with compounds at up to 32 mg/kg using 2% Tween 80 as vehicle. After 1-1.5 hours the animals were injected i.p. with 5 mg/kg pyrilamine. Thirty minutes following pyrilamine administration, animals were exposed to 10 minutes of a 0.1% ovalbumin (OA) aerosol followed by a 15 minute cloud decay period in a Tri-R Airborne Infection Apparatus (Compression air flow =20 L/min, main air flow =8.4 L/min). Guinea pigs were removed from the apparatus and caged for 18 hours prior to sacrifice and the following lung lavage procedure. […]
The aliquoted sample with Triton was diluted with 1 ml PBS/0.1% Triton buffer (pH 7.0). […] The O.D. of the mixture was measured at 490 nm, with background O.D. (blank tube) subtracted out.
Duplicate O.D. readings were averaged to obtain a single value for each animal. Average O.D. ± standard error is calculated using the six obtained values within each group of animals. Specific EPO response due to antigen challenge is calculated by: [formula] Percent inhibition of specific EPO response due to drug pretreatment is calculated by: [formula]

The test system of assay [5] is antigen-induced skin edema. In words: Inhibition of skin edema in guinea pigs sensitized to ovalbumin. The assay is classed as in vivo, guinea pig. The settings on record: 32 mg/Kg oral. How it is done:
Four guinea pigs (Hartley, male, 350-400 g) were sensitized with anti-ovalbumin IgG1 antibody. Two guinea pigs were orally dosed with 32 mg/Kg of the test compound and two other guinea pigs were dosed with vehicle (2% Tween-80). One-hour after dosing, each guinea pig was injected intraveneously with 1 ml of Evan Blue (7 mg/ml) and then his skin was challenged intradermally with 0.1 ml of ovalbumin (0.1%) or PBS. Twenty minutes after challenge, the skin was removed and skin edematous site (circular blue spots at challenge sites) was examined visually.

Take `COc1ccc(C2CNC(=O)NC2)cc1O[C@@H]1C[C@H]2CC[C@@H]1C2` (relative stereo) [5-[3-(exo-bicyclo[2.2.1]hept-2-yloxy)-4-methoxyphenyl]-3,4,5,6-tetrahydropyrimidin-2(1H)-one]: the IC50 in assay [1] stood at 500 nM; in the assay on human PDE [2] (human leukocyte homogenate preparation) it was 200 nM; in the assay with human PDE [3] (intact human peripheral blood leukocytes), 300 nM. The “potency in inhibiting PDE compared to Ro-20-1724” value with human PDE [2] (leukocyte homogenate preparation, compared to Ro-20-1724) is listed as “even greater potency than Ro-20-1724”; in the assay with human PDE [3] (intact human peripheral blood leukocyte preparation, compared to Ro-20-1724), “even greater potency than Ro-20-1724”. Moreover, the median effective dose (ED50) in assay [4] was 10 mg/kg. Moreover, the “intensity and area of blue spots at antigen-challenged skin sites as compared to vehicle-dosed animals” value in assay [5] (two guinea pigs, intradermal ovalbumin (0.1%), 20 minutes after challenge, visual examination) was “markedly reduced”. Besides, in assay [5] (conclusion of the test), the “effectiveness against antigen-induced skin edema in guinea pigs” value is reported as “effective against antigen-induced skin edema in guinea pigs”.
